Measurements published in US20250340569A1, “INHIBITORS OF KIF18A AND USES THEREOF” (Insilico Medicine IP Limited, priority 2023, published 2025).

Assays:
Kif18A = biological target: T1, Kif18A (Homo sapiens, UniProt Q8NI77); assay: KIF18A assay (ADP Glo); conditions: biochemical assay, ADP Glo luminescence
T1 sequence (Q8NI77 1-898): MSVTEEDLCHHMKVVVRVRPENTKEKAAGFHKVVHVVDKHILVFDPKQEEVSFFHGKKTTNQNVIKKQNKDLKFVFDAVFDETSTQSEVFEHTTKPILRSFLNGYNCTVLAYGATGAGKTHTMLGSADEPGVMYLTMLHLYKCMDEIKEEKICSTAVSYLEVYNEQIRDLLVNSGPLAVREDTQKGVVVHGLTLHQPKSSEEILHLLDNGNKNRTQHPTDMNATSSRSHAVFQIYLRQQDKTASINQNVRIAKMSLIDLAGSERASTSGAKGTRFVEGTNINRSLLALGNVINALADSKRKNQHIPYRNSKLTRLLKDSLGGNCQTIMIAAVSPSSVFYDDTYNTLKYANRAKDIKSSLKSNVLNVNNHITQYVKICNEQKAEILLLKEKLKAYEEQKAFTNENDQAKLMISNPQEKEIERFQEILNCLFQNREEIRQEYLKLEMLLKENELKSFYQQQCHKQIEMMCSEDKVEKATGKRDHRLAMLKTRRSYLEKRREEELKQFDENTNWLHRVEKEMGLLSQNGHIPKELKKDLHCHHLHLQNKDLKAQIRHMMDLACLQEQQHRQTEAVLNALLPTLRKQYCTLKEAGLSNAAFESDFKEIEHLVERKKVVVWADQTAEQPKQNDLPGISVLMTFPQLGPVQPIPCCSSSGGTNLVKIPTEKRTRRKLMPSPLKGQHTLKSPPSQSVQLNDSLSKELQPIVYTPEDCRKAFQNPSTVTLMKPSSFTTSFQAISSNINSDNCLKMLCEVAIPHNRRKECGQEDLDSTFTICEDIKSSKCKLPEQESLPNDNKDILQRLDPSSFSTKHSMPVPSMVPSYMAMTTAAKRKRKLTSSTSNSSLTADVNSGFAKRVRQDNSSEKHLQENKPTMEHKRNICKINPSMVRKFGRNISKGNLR
Method: The KIF18A assay was performed as follows:
1.1. Prepared 1× Kinase Buffer
• a) Added 40 μL test compound to 384-well dilution plate • b) Diluted compound 1:3 in succession in DMSO for each column for 10 pts • c) Transferred 0.1 μL diluted compound solution to 384 assay plate using Echo, each column containing 2 replicates • d) Added 5 μL enzyme working solution to 384-well assay plate, centrifuge 1000 RPM for 1 min e) Incubated at 25° C. for 15 min • f) Added 5 μL ATP working solution to initiate reaction • g) Incubated at 25° C. for 60 min • h) Added 10 μL ADP Glo reagent, centrifuge 1000 RPM for 1 min • i) Incubated at 25° C. for 60 min • j) Added 20 μL kinase detection reagent, centrifuge 1000 RPM for 1 min • k) Incubated at 25° C. for 60 min • l) Read Luminescence Signal on Envision 2104 plate reader.
1.3. Data Analysis—Calculated IC50 and Plot Dose-Response Curve of Compounds:
Calculated IC50 by fitting % Inhibition values and log of compound concentrations to nonlinear regression (dose response−variable slope) with GraphPad 6.0.
[formula] • X: log of inhibitor concentration; Y: % Inhibition

OVCAR-3 = assay: OVCAR3 CTG assay; assay type: cell-based; conditions: Homo sapiens, OVCAR-3, 144 h; CellTiter-Glo, 6 days incubation
From the text: Example B2: OVCAR3 CTG Assay
• a) Preparation of complete medium: Added FBS and appropriate additives according to the information sheet provided by the vendor. Mix gently. • b) Checked the cell name and complete medium and passage number marked on the flask. For adherent cell lines, refer to c to k. For suspension cell lines, refer to g to k. • c) Removed and discarded culture medium using a vacuum pump. • d) Briefly rinsed the cell layer with 0.25% (w/v) Trypsin-0.038% (w/v) EDTA solution to remove all traces of serum that contains trypsin inhibitor. • e) Added 3.0 ml of Trypsin-EDTA solution to flask and observed cells under an inverted microscope until cell layer is dispersed. • f) Added 9.0 ml of complete growth medium and aspirated cells by gently pipetting. • g) Transfered the cell suspension to a centrifuge tube and centrifuged at 1000 rpm for 4 minutes. • h) Discarded the supernatant using a vacuum pump. • i) Added appropriate volume of complete medium. Suspended the cell pellet by gently pipetting. • j) Counted the cell numbers with Vi-cell XR and adjusted cells to appropriate density. • k) Added 190 μL of cell suspension to 96-well opaque-walled clear bottom plates according to the planned plate layout and placed the plates in the CO2 incubator overnight.
2) Compound Stock Preparation:
• a) Plate preparation of testing articles:
The compounds were dissolved in DMSO to prepare 10 mM stock solution. The start working concentration (2 mM) was prepared with DMSO.
b) Staurosporine Plate Preparation:
0.4 mM Staurosporine was prepared in DMSO at working concentration.
The 20× compound containing medium was prepared according to the plate map. 10 μL of 20× compound containing medium was added into each well of the assay plates. Centrifuged at 1000 rpm for 1 minute. The total dilution was 200-fold.
3) Cells were Incubated with the Compounds for 6 Days at 5% CO2, 37° C.
Assay Measurement for CTG Assay
1) Preparation of Reagents
• a) Thawed the CellTiter-Glo buffer and equilibrated to room temperature prior to use. • b) Equilibrated the lyophilized CellTiter-Glo substrate to room temperature prior to use. • c) Transfered the appropriate volume of CellTiter-Glo buffer into the amber bottle containing CellTiter-Glo substrate to reconstitute the lyophilized enzyme/substrate mixture. This formed the CellTiter-Glo reagent. • d) Mixed by gently vortexing, swirling or by inverting the contents to obtain a homogeneous solution. The CellTiter-Glo substrate went into solution easily in less than one minute.
• a) Observed the cell morphology under an inverted microscope after corresponding treatment. • b) Equilibrated the plate and its contents to room temperature for approximately 30 minutes. • c) Added 100 μL of CellTiter-Glo reagent to the assay plate by Multidrop Combi instrument. • d) Mixed contents for 10 minutes on an orbital shaker to induce cell lysis. • e) Allowed the plate to incubate at room temperature for 10 minutes to stabilize luminescent signal. • f) Pasted the clear bottom with white back seal and record luminescence with Envision. The settings should be: Luminescence, measurement time 0.1 s.

Row | Structure (SMILES) | IC50 (Kif18A) [nM] | IC50 (OVCAR-3) [nM]
1 | Cc1cc2nc(n1)NCC(C)COCC1(C)CCN(CC1)c1cc(NS(=O)(=O)CCO)ccc1C(=O)N2 (stereo not drawn) [EX19] | < 10 | < 10
2 | Cc1cc2nc(n1)N1CCOC(COCC3(C(F)(F)F)CCN(CC3)c3cc(NS(=O)(=O)CCO)c(F)cc3C(=O)N2)C1 (stereo not drawn) [EX112] | < 10 | < 10
3 | CN1CCCOCC2(C(F)(F)F)CCN(CC2)c2nc(NS(=O)(=O)CCO)ccc2C(=O)Nc2cccc1n2 [EX72] | < 10 | 100 to 1000
4 | Cc1cc2nc(n1)N(C)CCCOCC1(C(F)(F)F)CCN(CC1)c1cc(NS(=O)(=O)CCO)ccc1C(=O)N2 [EX27] | 10 to 100 | 100 to 1000
5 | CN1CCCOCC2(C(F)(F)F)CCN(CC2)c2cc(NS(=O)(=O)CCO)ccc2C(=O)Nc2ccc(C#N)c1n2 [EX73] | 10 to 100 | 10 to 100
6 | Cc1cc2nc(n1)N(C)CCOCCC1(C)CCN(CC1)c1cc(NS(=O)(=O)CCO)ccc1C(=O)N2 [EX09] | 10 to 100 | 100 to 1000
7 | CN1CCCOCC2(C)CCN(CC2)c2cc(NS(=O)(=O)CCO)ccc2C(=O)Nc2cccc(n2)C1=O [EX22] | 100 to 1000 | 100 to 1000
8 | C[C@@H]1CNc2cccc(n2)NC(=O)c2ccc(NS(=O)(=O)CCO)cc2N2CCC(C(F)(F)F)(CC2)COC1 [EX56-B] | < 10 | < 10
9 | CNS(=O)(=O)c1ccc2c(c1)N1CCC(C)(CC1)COCCCN(C)c1nc(C)cc(n1)NC2=O [EX16] | 10 to 100 | 100 to 1000
10 | Cc1cc2nc(n1)N1CCO[C@H](COCC3(C(F)F)CCN(CC3)c3cc(NS(=O)(=O)CCO)ccc3C(=O)N2)C1 [EX113-A] | 10 to 100 | < 10
11 | [2H]C([2H])([2H])N1CCCOCC2(C(F)(F)F)CCN(CC2)c2cc(NS(=O)(=O)CCO)ccc2C(=O)Nc2cc(C)cc1n2 [EX67] | 10 to 100 | 100 to 1000
12 | CC12CCN(CC1)c1cc(NS(=O)(=O)CCO)ccc1C(=O)Nc1cccc(n1)OCCCOC2 [EX02] | < 10 | 10 to 100
13 | Cc1cc2nc(n1)N(CC(F)(F)F)CCCOCC1(C)CCN(CC1)c1cc(NS(=O)(=O)CCO)ccc1C(=O)N2 [EX26] | 10 to 100 | 1000 to 10000
14 | Cc1cc2nc(n1)NCCCCCC1(C)CCN(CC1)c1cc(NS(=O)(=O)CCO)ccc1C(=O)N2 [EX34] | < 10 | < 10
15 | CC1CCCC2(C(F)(F)F)CCN(CC2)c2cc(NS(=O)(=O)CCO)ncc2C(=O)Nc2cccc(n2)NC1 (single isomer, unassigned) [EX100-B] | < 10 | < 10
16 | [2H]C([2H])([2H])N1CCCOCC2(C(F)(F)F)CCN(CC2)c2cc(NS(=O)(=O)CCO)ccc2C(=O)Nc2ccnc1c2 [EX58] | 10 to 100 | 10 to 100
17 | Cc1cc2nc(n1)N(C1CC1)CCCOCC1(C(F)(F)F)CCN(CC1)c1cc(NS(=O)(=O)CCO)ccc1C(=O)N2 [EX45] | 10 to 100 | 100 to 1000
18 | CN1CCCOCC2(C(F)(F)F)CCN(CC2)c2cc(NS(=O)(=O)CCO)ccc2C(=O)Nc2ccnc1n2 [EX74] | < 10 | 10 to 100

Row | Structure (SMILES) | IC50 (Kif18A) [nM] | IC50 (OVCAR-3) [nM]
19 | Cc1cc2nc(n1)NC[C@H](C)COCC1(C(F)(F)F)CCN(CC1)c1cc(NS(=O)(=O)CCO)ccc1C(=O)N2 [EX36-A] | 10 to 100 | 10 to 100
20 | Cc1cc2nc(n1)NC(C)CCOCC1(C)CCN(CC1)c1cc(NS(=O)(=O)CCO)ccc1C(=O)N2 (stereo not drawn) [EX20] | 10 to 100 | 10 to 100
21 | CN1CCOCC2(C)CCN(CC2)c2cc(NS(=O)(=O)CCO)ccc2C(=O)Nc2cccc(c2)C1=O [EX10] | 10 to 100 | 100 to 1000
22 | Cc1cc2nc(n1)N(C)CCCOCC1(C)CCN(CC1)c1cc(S(=O)(=O)NC(C)(C)C)ccc1C(=O)N2 [EX15] | 10 to 100 | 100 to 1000
23 | O=C1Nc2ccc(=O)n(n2)CCCCOCC2(C(F)(F)F)CCN(CC2)c2cc(NS(=O)(=O)CCO)ccc21 [EX50] | 10 to 100 | 10 to 100
24 | CC12CCN(CC1)c1cc(NS(=O)(=O)CCO)ccc1C(=O)Nc1cccc(n1)OCCOC2 [EX01] | 10 to 100 | 100 to 1000
25 | CC12CCN(CC1)c1cc(NS(C)(=O)=O)ccc1C(=O)Nc1cccc(n1)OCCCOC2 [EX08] | < 10 | 100 to 1000
26 | Cc1cc2nc(n1)N(C)CCOCC1(C)CCN(CC1)c1cc(NS(=O)(=O)CCO)ccc1C(=O)N2 [EX04] | 10 to 100 | 10 to 100
27 | COC1CNc2nc(C)cc(n2)NC(=O)c2ccc(NS(=O)(=O)CCO)cc2N2CCC(C)(CC2)COC1 (stereo not drawn) [EX31] | 10 to 100 | 10 to 100
28 | [2H]C([2H])([2H])N1CCCOCC2(C(F)(F)F)CCN(CC2)c2cc(NS(=O)(=O)CCO)ccc2C(=O)Nc2cccc1n2 [EX48] | 10 to 100 | 10 to 100
29 | Cc1cc2nc(n1)NCC(F)COCC1(C)CCN(CC1)c1cc(NS(=O)(=O)CCO)ccc1C(=O)N2 (stereo not drawn) [EX24] | < 10 | 10 to 100
30 | CC12CCN(CC1)c1cc(NS(=O)(=O)CCO)ccc1C(=O)Nc1ccc(=O)n(n1)CCCCOC2 [EX13] | 10 to 100 | 100 to 1000
31 | Cc1cc2nc(n1)NCCCCC1(C)CCN(CC1)c1cc(NS(=O)(=O)CCO)ccc1C(=O)N2 [EX37] | < 10 | 10 to 100
32 | Cc1cc2nc(n1)NC[C@@H](C)COCC1(C(F)(F)F)CCN(CC1)c1cc(NS(=O)(=O)CCO)ccc1C(=O)N2 [EX36-B] | 10 to 100 | < 10
33 | Cc1cc2nc(n1)OCCCOCC1(C)CCN(CC1)c1cc(NS(=O)(=O)CCO)ccc1C(=O)N2 [EX05] | < 10 | 10 to 100
34 | O=C1Nc2cccc(n2)N2CCO[C@@H](COCC3(C(F)(F)F)CCN(CC3)c3cc(NS(=O)(=O)CCO)ccc31)C2 [EX81-A] | 10 to 100 | < 10
35 | CN1CCCOCC2(C(F)(F)F)CCN(CC2)c2cc(NS(=O)(=O)CCO)ncc2C(=O)Nc2cccc1n2 [EX82] | 10 to 100 | 10 to 100
36 | O=C1Nc2cccc(n2)OCCCOCC2CCN(CC2)c2cc(NS(=O)(=O)CCO)ccc21 [EX11] | 10 to 100 | 100 to 1000
